Test results reported in ChEMBL document CHEMBL1151673, “Vasculyne, a new cytotoxic acetylenic alcohol from the marine sponge Cribrochalina vasculum” (1996).
Converted amounts (≈) assume the structure as drawn.

What was measured:
[1] = Cytotoxicity against human melanoma cells; format: functional; details: Melanoma cell
[2] = Cytotoxicity against human colon cancer cells; format: functional; details: Cancer cell lines
[3] = read-out: LC50 (the source's name)

C#C[C@H](O)/C=C\CCCCCCCCCCCCCCCCCCCCCCCC/C=C/CCCCCCC/C=C/[C@@H](O)C#C [VASCULYNE]
GI50 [1]: 0.2 µg/mL (≈ 0.321 µM) | TGI [1]: 0.7 µg/mL (≈ 1.12 µM) | CC50 [1, 3]: 6.7 µg/mL (≈ 10.8 µM) | GI50 [2]: 0.2 µg/mL (≈ 0.321 µM) | TGI [2]: 0.7 µg/mL (≈ 1.12 µM) | CC50 [2, 3]: 6.7 µg/mL (≈ 10.8 µM)
